In patent US20250011363A1, “OPTIMIZED SHORTENED PEPTIDE THAT BINDS TO ACETYLCHOLINE RECEPTOR, AND USE THEREOF” (SKINMED CO., LTD., priority 2021, published 2025):
Where two headings read alike, the source gives them in different places. Residues, ends and D or L forms follow the SMILES beside them. No end group written: not given here. *: point of attachment. Palmitoyl = CCCCCCCCCCCCCCCC(=O)*

Experiments:
[1] = target: T1, Acetylcholine receptor-overexpressing TE671 cells (Homo sapiens, UniProt P02708); test: Calcium imaging (Fura-2-AM) of nicotine response, acetylcholine receptor inhibition; type: cell-based; conditions: for inhibition at 1 µM: TE-671; for concentration at which acetylcholine receptors were inhibited: TE671 cells, nicotine 400 uM, calcium imaging
T1 construct: endogenous in cells; host or cells: TE671 cells
T1 sequence (P07510 23-517): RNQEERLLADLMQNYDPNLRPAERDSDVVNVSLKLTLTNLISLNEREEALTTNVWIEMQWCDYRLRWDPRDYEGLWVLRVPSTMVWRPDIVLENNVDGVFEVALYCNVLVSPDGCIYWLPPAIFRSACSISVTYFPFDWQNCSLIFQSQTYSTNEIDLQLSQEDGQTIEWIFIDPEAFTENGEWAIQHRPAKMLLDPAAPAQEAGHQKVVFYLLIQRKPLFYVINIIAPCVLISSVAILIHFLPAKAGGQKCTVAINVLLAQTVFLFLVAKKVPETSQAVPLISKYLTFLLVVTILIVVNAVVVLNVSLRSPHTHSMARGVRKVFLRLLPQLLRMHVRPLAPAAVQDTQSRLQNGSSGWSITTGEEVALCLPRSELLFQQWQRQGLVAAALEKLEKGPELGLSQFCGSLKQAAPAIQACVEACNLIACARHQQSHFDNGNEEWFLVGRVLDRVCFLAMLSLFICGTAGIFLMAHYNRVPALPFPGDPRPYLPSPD
T1 sequence (P11230 24-501, further chain): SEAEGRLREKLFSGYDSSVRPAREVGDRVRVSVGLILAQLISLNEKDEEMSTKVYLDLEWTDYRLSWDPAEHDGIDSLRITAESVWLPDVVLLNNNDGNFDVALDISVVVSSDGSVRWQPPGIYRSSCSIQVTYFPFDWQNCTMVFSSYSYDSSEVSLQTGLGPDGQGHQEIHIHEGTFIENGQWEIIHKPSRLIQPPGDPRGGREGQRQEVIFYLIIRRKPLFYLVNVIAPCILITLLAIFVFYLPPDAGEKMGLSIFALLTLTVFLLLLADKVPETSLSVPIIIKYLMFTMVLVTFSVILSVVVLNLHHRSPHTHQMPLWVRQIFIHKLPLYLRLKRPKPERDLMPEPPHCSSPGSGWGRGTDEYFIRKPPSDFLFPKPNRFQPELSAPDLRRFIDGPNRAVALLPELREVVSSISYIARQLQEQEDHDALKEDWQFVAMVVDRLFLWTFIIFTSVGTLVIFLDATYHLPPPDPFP
T1 sequence (Q07001 22-517, further chain): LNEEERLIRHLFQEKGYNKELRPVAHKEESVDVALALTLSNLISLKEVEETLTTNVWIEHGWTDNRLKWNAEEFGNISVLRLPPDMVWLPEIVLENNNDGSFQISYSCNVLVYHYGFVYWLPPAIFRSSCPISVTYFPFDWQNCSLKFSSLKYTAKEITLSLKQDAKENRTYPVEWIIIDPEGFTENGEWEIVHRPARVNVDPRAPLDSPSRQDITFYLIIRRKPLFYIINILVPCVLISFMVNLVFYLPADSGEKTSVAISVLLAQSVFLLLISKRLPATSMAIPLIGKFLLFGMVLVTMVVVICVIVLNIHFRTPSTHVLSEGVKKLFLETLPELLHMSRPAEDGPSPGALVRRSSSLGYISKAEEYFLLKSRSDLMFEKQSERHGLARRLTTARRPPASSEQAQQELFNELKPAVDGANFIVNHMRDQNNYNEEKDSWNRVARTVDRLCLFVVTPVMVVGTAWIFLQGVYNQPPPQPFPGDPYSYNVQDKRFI
T1 sequence (P02708 21-457): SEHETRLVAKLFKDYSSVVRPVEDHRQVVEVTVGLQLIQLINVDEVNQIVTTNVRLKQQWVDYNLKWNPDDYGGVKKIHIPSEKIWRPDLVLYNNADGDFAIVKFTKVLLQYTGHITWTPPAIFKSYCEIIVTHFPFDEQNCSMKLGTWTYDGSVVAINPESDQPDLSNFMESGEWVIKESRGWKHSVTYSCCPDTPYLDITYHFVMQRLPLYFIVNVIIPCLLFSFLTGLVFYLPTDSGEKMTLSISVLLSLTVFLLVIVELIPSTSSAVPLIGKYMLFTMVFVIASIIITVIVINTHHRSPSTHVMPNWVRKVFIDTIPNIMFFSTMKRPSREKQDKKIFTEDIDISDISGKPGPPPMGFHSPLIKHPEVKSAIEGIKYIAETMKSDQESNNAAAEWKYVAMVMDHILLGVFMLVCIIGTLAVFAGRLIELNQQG
Method: Acetylcholine receptor-overexpressing TE671 cells were cultured at 37° C. in DMEM medium supplemented with 10% FBS and 1% P/S under 5% CO2. After the TE671 cells were sufficiently grown for 4 days, the cells were detached using trypsin and the cell culture was plated in an amount of 1 ml at a density of 2×10^4 cells/well into 12-well cell culture plate with an 18 mm cover-slip lined therein, and cultured for 4 days.
The cover-slip on which the cells had grown was transferred to a fresh 12-well cell culture plate, and 997 μl of HBSS buffer and 3 μl of Fura-2-AM were added and gently mixed, followed by incubation at 37° C., 5% CO2 for 15 minutes. After incubation, the remaining Fura-2-AM was removed by washing 3-4 times with 1 ml of HBSS buffer, and an additional 1 ml was added. The cover-slip with the grown cells was placed in a chamber, and 500 μl of HBSS buffer was dispensed. The final concentration of nicotine was adjusted to 400 µM to observe the calcium imaging reaction. Then, while keeping the nicotine concentration fixed, the concentration of the sample was adjusted to find the inhibiting concentration.
The inhibitory ability of the Palmitate-6mer-1-43 and Palmitate-5mer-73 peptides on the acetylcholine receptor was examined in the same manner as in Example 6. Additionally, the inhibitory ability (IC50) of the optimized short peptides and the palmitate-modified peptides according to the present disclosure against acetylcholine receptor was compared with Synake and is depicted in FIG. 16.

[2] = tested on: dermal fibroblast cells isolated from human skin; conditions: 100 nM to 100 μM, 24 hours
Method: The optimized shortened peptides according to the present disclosure were assayed for cytotoxicity. In this regard, the cytotoxicity was assessed by the MTT [(3-(4,5-dimethylthiazol-2-yl)-2,5-diphenyltetrazolium bromide] method using dermal fibroblast cells isolated from human skin. The pre-cultured cells were seeded at a concentration of 1×10^5 cells/mL in a 24-well plate and cultured for 18 hours. Subsequently, the medium was removed and the diluted sample was added to the medium free of FBS and incubated for 24 hours, after which the medium was removed and MTT solution was added at a concentration of 1 μg/mL and reacted for 3 hours. Unreacted MTT was removed, and DMSO 100 μL was added to dissolve the formed formazan, and the absorbance at 540 nm was read on an ELISA reader.

acetylcholine receptor [3] = target: T2, acetylcholine receptor (Homo sapiens, UniProt P02708); test: SPR (Biacore) affinity of shortened Espep2 peptides, Examples 1-2; type: binding; conditions: for higher affinity compared to Synake: SPR, FIG. 1
T2 sequence (P02708 21-457): as above
Method: To construct an optimized shortened library from the previous Espep2 peptide, assessment was made of the affinity of peptides having sequences sequentially removed from the N- and C-terminals. Initially, surface plasmon resonance (SPR) experiments were conducted using a biosensor chip (Biacore3000, Biacore AB, Uppsala, Sweden). Selected acetylcholine receptor proteins were immobilized on a CM5 chip (Biacore) using EDC/NHS and observed for association and dissociation for up to 500 seconds. The observation conditions were set forth as follows: running buffer 20 mM Tris (pH 7.4), rate 30 ul/min, concentration 20 μM (peptide), and the results are depicted in FIG. 1.
To identify the crucial sequences in the shortened peptides, alanine scanning was conducted. Wild-type (WT) Espep2-6mer (RKSLLR) and Espep2-5mer (KSLLR) peptides were synthesized with each amino acid sequentially substituted with alanine (Ala, A), and their affinity was measured using the same method as in Example 1. The measurements are depicted in FIG. 2 after normalization to WT.
Moreover, among the six amino acids in the RKSLLR sequence, R residues at the N and C terminals are crucial.

acetylcholine receptor [4] = target: T2, acetylcholine receptor; test: as above; type: binding; conditions: FIG. 3
acetylcholine receptor [5] = target: T2, acetylcholine receptor; test: SPR binding affinity (RU) of optimized 5mer/6mer/7mer peptides, Examples 6-7; conditions: for Binding affinity (RU) / Binding affinity: SPR; for Binding affinity (RU): peptides at 10 μM; for Binding affinity: peptides tested at 10 μM
Summary of the method: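 600 peptides per series (5mer, 6mer-1, 6mer-2), made from high- or low-frequency amino acid combinations, are screened by SPR at 10 μM; binding is recorded in RU.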

CCCCCCCCCCCCCCCC(=O)N[C@@H](CCCNC(=N)N)C(=O)N[C@@H](CCCNC(=N)N)C(=O)N[C@@H](CCC(N)=O)C(=O)N[C@@H](CCCNC(=N)N)C(=O)N[C@@H](CCCNC(=N)N)C(=O)O [Pal-5mer-73] (Palmitoyl-RRQRR-OH; N-terminus and C-terminus assumed)
inhibition at 1 µM [1]: 100%
cytotoxicity (MTT) [2]: non-toxic

CCCCCCCCCCCCCCCC(=O)N[C@@H](CCCNC(=N)N)C(=O)N[C@@H](CCCCN)C(=O)N[C@@H](CCCNC(=N)N)C(=O)N[C@H](C(=O)N[C@@H](CCCNC(=N)N)C(=O)N[C@@H](CCCNC(=N)N)C(=O)O)[C@@H](C)CC [Pal-6mer-1-43] (Palmitoyl-RKRIRR-OH; N-terminus and C-terminus assumed)
inhibition at 1 µM [1]: 100%
cytotoxicity (MTT) [2]: non-toxic

KGRKSLLR [Espep2-8mer, KGRKSLLR]
Kd (acetylcholine receptor [3]): 3100 nM
higher affinity compared to Synake (acetylcholine receptor [3]): 740 times

KSLLR [5mer-ND]
binding affinity compared to Synake (acetylcholine receptor [4]): higher binding affinity than Synake
Binding affinity (RU) (acetylcholine receptor [5]): 23 RU

KWRQKR [6mer-2-233]
concentration at which acetylcholine receptors were inhibited [1]: 10 µM
Binding affinity (acetylcholine receptor [5]; Resonance Units, 6mer-2 Top sequence (Table 12)): 190 Ru
Binding affinity (RU) (acetylcholine receptor [5]): 190 RU

RKRIRR [6mer-1-43, RKRIRR]
concentration at which acetylcholine receptors were inhibited [1]: 10 µM
cytotoxicity (MTT) [2]: non-toxic
Kd (acetylcholine receptor [5]): 609 nM
Binding affinity (RU) (acetylcholine receptor [5]): 548 RU
Binding affinity (acetylcholine receptor [5]; 6mer-1 Top sequence (top combinations)): 548 Ru

RKSLL [5mer-CD]
binding affinity compared to Synake (acetylcholine receptor [4]): slightly lower binding affinity compared to Synake

RKSLLR [Espep2-6mer, RKSLLR]
binding affinity compared to Synake (acetylcholine receptor [4]): higher affinity than that of Synake
RU value (acetylcholine receptor [4]; peptide 20 μM): 177 RU
Binding affinity (RU) (acetylcholine receptor [5]): 35 RU
Kd (acetylcholine receptor [3]): 57000 nM
higher affinity compared to Synake (acetylcholine receptor [3]): 40 times

RRGVRR [6mer-1-210]
concentration at which acetylcholine receptors were inhibited [1]: 10 µM
Binding affinity (acetylcholine receptor [5]; 6mer-1 Top sequence): 184 Ru
Binding affinity (RU) (acetylcholine receptor [5]): 184 RU

RRQRR [5mer-73, RRQRR]
cytotoxicity (MTT) [2]: non-toxic
skin permeability (after 8 hours, 37° C.): 66.87%

RSYSR [5mer-311]
concentration at which acetylcholine receptors were inhibited [1]: 10 µM
Binding affinity (RU) (acetylcholine receptor [5]): 167 RU
Binding affinity (acetylcholine receptor [5]; 5mer Top sequence): 167 Ru

RWRYKR [6mer-2-136]
concentration at which acetylcholine receptors were inhibited [1]: 10 µM
Binding affinity (acetylcholine receptor [5]; 6mer-2 Top sequence): 194 Ru
Binding affinity (RU) (acetylcholine receptor [5]): 194 RU

WTWKGRKSLLR [Espep2-11mer, WTWKGRKSLLR, reference compound]
concentration at which acetylcholine receptors were inhibited [1]: 5 µM
skin permeability (sampled up to 24 hours): did not permeate at all
Kd (acetylcholine receptor [3]): 1200 nM
higher affinity compared to Synake (acetylcholine receptor [3]): 1916 times
